Experimental data reported in US20080171704A1, “Composition and method for treating diabetes” (priority 2001, published 2008).
Where a SMILES comes first, the peptide text is derived from it.

Experiments:
[1] = test system: ARIP cells, a rat pancreatic duct cell line; experiment: ARIP cell BrdU proliferation bioassay; format: cell-based; details: FIG. 1
Procedure: To confirm that the synthetic molecule is bioactive, a bioassay may be used to confirm the activity. ARIP cells, a rat pancreatic duct cell line, obtained from ATCC (Manassas, Va.) are used in the assay. Cells are plated into a 96-well culture plate at 10,000 cells/well, and cultured for 24 hours in Dulbecco's […] Essential Medium (DMEM) containing 10% fetal bovine serum. After 24 hours, the medium is replaced with DMEM without serum. […] After 21 hours, the medium is supplemented with bromodeoxyuridine (BrdU) labeling solution from a BrdU cell proliferation ELISA kit (Roche Molecular Biochemicals) and cultured for a further 3 hours. At 24 hours the cells are dried at 60° C. for 60 minutes, fixed and denatured. They are exposed to BrdU antibody for 90 minutes and developed for 15 minutes, all according to kit instructions. BrdU labeling is quantitated on a Wallac Victor 1420 Multilabel Counter. Results are compared against a standard curve of cells grown on the same culture plate, seeded at densities from 100 to 20,000 cells per well.

[2] = Stability of bulk INGAP Peptide (lyophilized powder); format: physicochemical
Procedure: Stability is determined by comparing various parameters including, but not limited to, degree of purity, total percentage of impurities, percentage of individual impurities (as determined by HPLC or other suitable quantitative method), appearance, and water content of the sample. An HPLC method can be used to determine any increase in the levels of degradation products relative to the level of INGAP Peptide. INGAP Peptide samples (both solution and lyophilized powder) are stored at various temperatures, in the presence or absence of humidity, and in light or dark vials. Degradation during different storage conditions can lead to an increase in impurities and decrease in INGAP Peptide content. It is desirable that the sample preparation is more than 80% pure, preferably more than 90% pure, more preferably more than 95%, and most preferably more than 97% pure.
Purity of the INGAP Peptide is maintained under these conditions and degradation products are lower than the acceptable levels.

normal hamsters = experiment: Islet formation in normal hamsters; format: in vivo, Syrian golden Hamsters; details: 5 mg/kg IP daily
Procedure: FIG. 2. Increase in pancreatic endocrine cell mass with INGAP Peptide. Normal Syrian golden Hamsters were treated with saline (control) or INGAP Peptide IP for either 10 days or 30 days. The number of islets/ml was determined with a computer-aided Morphometric system employing Image-Pro Plus software.
INGAP Peptide was studied for its effects on islet formation in normal hamsters. INGAP Peptide 5 mg/kg (25 mg/m^2) was given IP daily for 4 weeks and β-cell mass was assessed at 10 days and at 30 days. […] The islet neogenesis effect was manifested by production of more insulin and an increase in the number of islets in the pancreata. Newly formed β-cells appeared in the wall of, and budding from, pancreatic ducts. These insulin-positive cells resulted from ductal epithelial cell differentiation and islet cell growth, and their appearance was proportional to the dose and duration of treatment with INGAP Peptide. Over longer periods of treatment, these cells migrated away from the duct and formed islets in the parenchyma of the pancreas. After 10 consecutive days of INGAP Peptide administration, there was a 30% increase in islet number, and by 30 days there was a doubling of the number of islets in the tissues, consistent with the prior observations using ilotropin, INGAP, and cellophane wrapping in animal models.

[3] = test system: C57BL/6J mice made diabetic with STZ; experiment: In vivo efficacy study in streptozotocin-diabetic mice
Procedure: FIG. 3. Time course of blood glucose following injection of INGAP Peptide […] twice daily or saline for 39 days to C57BL/6J mice rendered diabetic using a regimen of multiple injections of low-dose streptozotocin. Blood glucose levels were measured every three days.
C57BL/6J mice were made diabetic with STZ (35 mg/kg/day×5 days) and divided in INGAP Peptide-treated (250 ? g twice daily) and saline control groups of 4 animals each. […] The appearance of glucagon producing cells is noteworthy since glucagon plays a major role in the defense against hypoglycemia. This feature of the INGAP Peptide induced islet neogenesis could help to reverse the impaired counter regulatory control of hypoglycemia associated with the overzealous treatment of diabetes. Hypoglycemia was not observed in any of the INGAP Peptide-treated animals. In saline-treated control animals, no new islet formation was observed.

[4] = 31-day mouse repeat-dose toxicology study; format: in vivo, mice; details: mouse, in vivo; CD-1 mice, 31-day dosing; read-out: no adverse effect level (NOAEL)
Procedure: (§1) FIG. 7. Immunopositive tissue area in normal mouse following treatment with INGAP Peptide for 31 days. Data are mean ±SEM. The percentage of cross-sectional area stained for insulin was determined with an Olympus microscope (150×) and image analysis software (Image Pro Plus Version 4.0, Media Cybernetics).
(§2) A repeat-dose toxicology study was conducted in mice with 31 days of daily injection of INGAP Peptide at 0, 2, 20, and 100 mg/kg/day. In this study, four treatment groups of 10 males and 10 females each were allocated, as were two groups of recovery animals (5 males and 5 females). Blood was collected at termination and necropsies were performed for gross and microscopic observations. Clinical pathology and serum levels were evaluated in approximately half the animals in each group. Selected organs (brain, adrenal, heart, kidney, liver, lung, pancreas, and spleen) were weighed and relative organ weights were calculated. A section of the pancreas was removed and frozen in liquid nitrogen for evaluation for insulin content and sections of pancreas tissue were submitted for independent microscopic examination. Recovery animals were terminated 28 days after cessation of dosing. Various parameters for further study as well as potentially drug-related abnormal findings were evaluated to determine the reproducibility and potential clinical significance.

CD-1 mice = experiment: 31-day mouse repeat-dose toxicology study; format: in vivo
Procedure: as §1, §2

beagle dogs = experiment: 34-day dog repeat-dose toxicology study; format: in vivo
Procedure: FIG. 8. Effects of daily injection of INGAP Peptide to dogs for 34 days on the area of cells in the pancreas that becomes positive for insulin by immunohistochemical staining. Data are mean ±SEM. The percentage of cross-sectional area stained for insulin was determined with an Olympus microscope (150×) and image analysis software (Image Pro Plus Version 4.0, Media Cybernetics).
A repeat-dose toxicology study was conducted in beagle dogs for 34 days with daily IM injection of INGAP Peptide at 0, 0.5, 1.5, and 10 mg/kg/day. Pancreatic tissue was obtained for quantitation of β-cell mass by immunohistochemistry from animals sacrificed on Day 34, at termination of treatment, and from recovery animals sacrificed 25 days after termination of treatment. Pancreatic β-cell mass was increased following INGAP Peptide administration (see FIG. 8).

patients = experiment: Human clinical studies in type I or type II diabetes mellitus; format: in vivo; details: versus placebo
Procedure: Doses are often based on the results of efficacy and safety studies in animals. Two doses of INGAP Peptide, 7.5 mg (0.125 mg/kg, or 4.625 mg/m^2 for a 60 kg patient) and 120 mg ([…], or 74 mg/m^2 for a 60 kg patient) are exemplified in the treatment of type I or type II diabetes mellitus. The following parameters are evaluated to determine efficacy of INGAP Peptide treatment. • 1. A reduction of fasting glucose levels by >35 mg/dl while the total insulin dose is maintained. • 2. A reduction of insulin dose by 25% with fasting glucose levels maintained in the normal range as determined by the American Diabetes Association (ADA) criteria. • 3. An increase in fasting C-peptide >1 ng/ml is obtained. An increase in C-peptide of >2 ng/ml in response to Sustacal® (Boost®) is obtained.
Each patient is randomized to receive one single intramuscular injection of INGAP Peptide. After evaluating efficacy and safety data, patients could be given further INGAP Peptide injections as deemed appropriate by the physician.
Stimulated C-peptide tests are performed in the morning after an overnight fasting period of at least 10 hours. The tests are performed only if the fasting glucose is between 80 and 250 mg/dl. Patients can take their diabetes medications the evening before, but should not take them the morning of the test until the test is completed. Blood samples for the determination of C-peptide are drawn immediately before Boost® ingestion, and at 0.5, 2, and 4 hours post-ingestion. Boost® is administered through ingestion. Patients are considered insulin deficient if their fasting C-peptide is <1.0 ng/ml and their maximum stimulated C-peptide value is <2.0 ng/ml.

CC[C@H](C)[C@H](N)C(=O)NCC(=O)N[C@@H](CC(C)C)C(=O)N[C@@H](Cc1c[nH]cn1)C(=O)N[C@@H](CC(=O)O)C(=O)N1CCC[C@H]1C(=O)N[C@@H](CO)C(=O)N[C@@H](Cc1c[nH]cn1)C(=O)NCC(=O)N[C@H](C(=O)N[C@@H](CC(C)C)C(=O)N1CCC[C@H]1C(=O)N[C@@H](CC(N)=O)C(=O)NCC(=O)N[C@@H](CO)C(=O)O)[C@@H](C)O [INGAP Peptide, NH2-Ile-Gly-Leu-His-Asp-Pro-Ser-His-Gly-Thr-Leu-Pro-Asn-Gly-Ser-COOH] (H-IGLHDPSHGTLPNGS-OH)
increase in cell count compared with controls ([1]; 0.1 µg/ml INGAP Peptide, 24 h, BrdU ELISA): ~1.6 fold | cell number, dose dependence [1]: dose dependant increase in cell number | degradation on further storage ([2]; lyophilized powder, storage up to six-months): does not cause any noticeable degradation | stability of lyophilized powder ([2]; various storage conditions): stable under various storage conditions | number of islets compared with placebo-treated animals (normal hamsters; FIG. 2): significant increase | increase in islet number (normal hamsters; after 10 consecutive days): 30% | number of islets in the tissues (normal hamsters; by 30 days): doubling | blood glucose concentrations ([3]; 250 µg twice daily for 39 days, all four treated animals, FIG. 3): restored to normal | transdifferentiation of ductal cells (PDX-1 expression) ([3]; FIG. 5): induced transdifferentiation of ductal cells | histopathologic evaluation of islets ([3]; FIGS. 4 and 6): both the presence of normal-appearing islets and areas of new islet formation | hypoglycemia ([3]; any of the treated animals): not observed | durability of the effect after dosing stopped ([3]; dosing stopped after 39 days, study terminated at 48 days): 48 days | islet inflammation ([3]; versus saline-treated STZ-diabetic animals, FIG. 6): markedly reduced | NOAEL [4]: > 100 mg/kg | insulin-positive tissue area (CD-1 mice; 31 days, FIG. 7): increase in insulin-positive tissue area | number of small islets (CD-1 mice; duct-associated and amongst acinar tissue): increase in the number of small islets | extramedullary hematopoiesis in the spleen (CD-1 mice; mouse, in vivo): seen in one male animal at the high dose | injection site irritation (CD-1 mice; mouse, in vivo): observed in males and females with increased frequency at the highest dose | microscopic pancreas findings (CD-1 mice; mouse, in vivo): No microscopic evidence of inflammatory cell infiltration, edema, necrosis or atrophy | pancreatic tissue section review (beagle dogs; 34-day daily IM dosing): no changes such as edema, inflammatory cell infiltration, necrosis or atrophy | pancreatic β-cell mass (beagle dogs; daily IM 0.5, 1.5, 10 mg/kg/day for 34 days, immunohistochemistry, FIG. 8): increased | sugar tolerance (patients; intramuscular injection): improved sugar tolerance | C-peptide level in response to Boost® (patients): an increase in C-peptide level in response to Boost® | fasting C-peptide level (patients): an increase in fasting C-peptide level | fasting glucose level (patients): a reduction in fasting glucose level | insulin dose required (patients): a reduction in insulin does required
